# Assay results from BindingDB's records for doi:10.7270/Q2CN728N (Nmmlsc, 2008).
# Structures can show the parent of a compound that is named as a salt.
# Molecular target: T1, Bcl-2-related protein A1 (Homo sapiens, UniProt Q16548)
# T1 sequence (Q16548 whole entry): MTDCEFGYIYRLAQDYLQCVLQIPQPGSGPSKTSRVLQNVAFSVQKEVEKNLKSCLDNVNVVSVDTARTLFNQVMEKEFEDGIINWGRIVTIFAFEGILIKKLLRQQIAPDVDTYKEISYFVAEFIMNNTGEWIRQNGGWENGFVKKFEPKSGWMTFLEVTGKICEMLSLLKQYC
# Experiment: inhibitors of Bim binding to Bfl-1, dose response, biochemical, multiplexed, bead-based flow cytometry (AID 1320)
# Settings: inactive by the depositor's call; pH 7.4; 4 °C
row,Compound,EC50 [µM]
1,COc1ccc(/C=C(/C(=O)c2cccs2)N2C=CC=CC2=C(C#N)C#N)cc1 [2-[1-[(Z)-1-(4-methoxyphenyl)-3-oxidanylidene-3-thiophen-2-yl-prop-1-en-2-yl]pyridin-2-ylidene]propanedinitrile],2.23
2,Cc1ccc(-c2cc(-c3ccc(Cl)cc3)c(C#N)c(N)n2)o1 [2-azanyl-4-(4-chlorophenyl)-6-(5-methylfuran-2-yl)pyridine-3-carbonitrile],2.65
3,"Cc1ccc(/C=C/C(=O)c2ccccc(=O)c2O)c(C)c1 [3-[3-(2,4-dimethylphenyl)acryloyl]-2-hydroxy-2,4,6-cycloheptatrien-1-one]",51.1
4,N#Cc1cccc(/N=c2/ssnc2Cl)c1 [3-[(4-chloro-5-dithiazolylidene)amino]benzonitrile],14.5
5,"COc1ccc(N2C(=O)C(Cl)=C(Oc3cccc(OC)c3)C2=O)cc1 [3-chloro-4-(3-methoxyphenoxy)-1-(4-methoxyphenyl)-1H-pyrrole-2,5-dione]",0.68
6,CCOc1cc(S(=O)(=O)Nc2ccccn2)ccc1F [3-ethoxy-4-fluoro-N-(2-pyridinyl)benzenesulfonamide],44.5
7,"Cc1nc2ncccn2c1-c1csc(Nc2ccccc2)n1 [4-(2-methyl-3-imidazo[1,2-a]pyrimidinyl)-N-phenyl-2-thiazolamine]",11.7
8,"CNc1ccc(Br)cc(C(=O)/C=C/c2cccc(OC)c2)c1=O [4-bromo-2-[3-(3-methoxyphenyl)acryloyl]-7-(methylamino)-2,4,6-cycloheptatrien-1-one]",17.5
9,"Cc1cc(C)nc(SCc2cc(=O)c(OC(=O)c3ccc(Cl)c([N+](=O)[O-])c3)co2)n1 [4-chloro-3-nitrobenzoic acid [6-[[(4,6-dimethyl-2-pyrimidinyl)thio]methyl]-4-oxo-3-pyranyl] ester]",19.7
10,"COc1cc(/N=c2/ssnc2Cl)cc(OC)c1 [4-chloro-N-(3,5-dimethoxyphenyl)-5-dithiazolimine]",15
11,CCOC(=O)c1sc(N)c(C(=O)Nc2ccccc2OC)c1C [5-amino-4-[(2-methoxyanilino)-oxomethyl]-3-methyl-2-thiophenecarboxylic acid ethyl ester],5.66
12,O=C(N[N-][CH+]c1ccc(-c2ccccc2[N+](=O)[O-])o1)c1cncc(Br)c1 [5-bromo-N-[[5-(2-nitrophenyl)furan-2-yl]methylideneamino]pyridine-3-carboxamide],33.6
13,O=C1C(=Cc2ccco2)NC(=S)N1c1ccccc1 [(5E)-5-(furan-2-ylmethylidene)-3-phenyl-2-sulfanylideneimidazolidin-4-one],14.8
14,CC(C)CN1C(=O)/C(=C/c2ccco2)NC1=S [(5Z)-5-(2-furanylmethylidene)-3-(2-methylpropyl)-2-sulfanylidene-4-imidazolidinone],11
15,Cc1ccc(-c2ccc(/C=C3\SC(N4CCOCC4)=NC3=O)o2)cc1 [(5Z)-5-[[5-(4-methylphenyl)-2-furanyl]methylidene]-2-(4-morpholinyl)-4-thiazolone],20

# Same assay, conditions: pH 7.4; 4 °C
row,Compound,EC50 [µM]
1,"O=C(NCc1ccccc1)c1ccc2nc(-c3ccco3)c(-c3ccco3)nc2c1 [2,3-bis(furan-2-yl)-N-(phenylmethyl)quinoxaline-6-carboxamide]",3.06
2,"COc1ccc2nc(-c3ccco3)c(-c3ccco3)nc2c1 [2,3-di-2-furyl-6-methoxyquinoxaline]",4.93
3,"O=C(NCc1ccccn1)c1ccc2nc(-c3ccco3)c(-c3ccco3)nc2c1 [2,3-di-2-furyl-N-(pyridin-2-ylmethyl)quinoxaline-6-carboxamide]",3.66
4,"O=C(Nc1ccccc1)c1ccc2nc(-c3ccco3)c(-c3ccco3)nc2c1 [2,3-di-2-furyl-N-phenyl-6-quinoxalinecarboxamide]",7.56
5,"Cc1cccc(NC2=NC(=O)C(=CC=Cc3ccco3)S2)c1C [2-(2,3-Dimethyl-phenylamino)-5-[(E)-3-furan-2-yl-prop-2-en-(Z)-ylidene]-thiazol-4-one]",3.17
6,c1coc(C2=Nc3cccc4cccc(c34)N2)c1 [2-(2-furanyl)-1H-perimidine],6.32
7,"Cc1cc(C)c(S(=O)(=O)N=C2C=C(SCC(=O)O)C(=O)c3ccccc32)cc1C [2-[1-oxidanylidene-4-(2,4,5-trimethylphenyl)sulfonylimino-naphthalen-2-yl]sulfanylethanoic acid]",8.24
8,"COc1cc(CNc2ccc3[nH]c(=O)[nH]c3c2)cc(Br)c1OCC(=O)NC(C)(C)C [2-[2-bromo-6-methoxy-4-[[(2-oxo-1,3-dihydrobenzimidazol-5-yl)amino]methyl]phenoxy]-N-tert-butylacetamide]",0.87
9,"Cc1ccc(/C=C/C2=Cc3c(sc(NC(=O)CSc4nnc(N)[nH]4)c3C#N)C(C)(C)C2)o1 [2-[(5-azanyl-1H-1,2,4-triazol-3-yl)sulfanyl]-N-[3-cyano-7,7-dimethyl-5-[(E)-2-(5-methylfuran-2-yl)ethenyl]-6H-1-benzothiophen-2-yl]ethanamide]",4.19
10,"Cc1nnc(Sc2cc(NCCO)c([N+](=O)[O-])c3nonc23)s1 [2-[[7-[(5-methyl-1,3,4-thiadiazol-2-yl)thio]-4-nitro-2,1,3-benzoxadiazol-5-yl]amino]ethanol]",0.52
11,CCOC(=O)CSC1=NC(=O)/C(=C/c2ccc(OC)cc2)S1 [2-[[(5Z)-5-[(4-methoxyphenyl)methylidene]-4-oxo-2-thiazolyl]thio]acetic acid ethyl ester],1.12
12,Cc1ccc(-c2cc(-c3ccc(C)o3)nc(N)c2C#N)cc1 [2-amino-6-(5-methylfuran-2-yl)-4-(4-methylphenyl)pyridine-3-carbonitrile],2.25
13,Cc1cc(-c2cc(-c3ccc(Cl)cc3)nc(N)c2C#N)co1 [2-azanyl-6-(4-chlorophenyl)-4-(5-methylfuran-3-yl)pyridine-3-carbonitrile],3.86
14,CCN(CC)c1ccc(NC2=C(Cl)C(=O)c3ccccc3C2=O)cc1 [2-chloro-3-{[4-(diethylamino)phenyl]amino}naphthoquinone],0.18
15,"CC(=O)OCCNc1cc(Sc2nc3ccccc3[nH]2)c2nonc2c1[N+](=O)[O-] [2-{[7-(1H-benzimidazol-2-ylthio)-4-nitro-2,1,3-benzoxadiazol-5-yl]amino}ethyl acetate]",5.6
16,"O=C(/C=C/c1ccccc1Cl)c1ccccc(=O)c1O [3-[(E)-3-(2-chlorophenyl)prop-2-enoyl]-2-oxidanyl-cyclohepta-2,4,6-trien-1-one]",9.01
17,"O=C(c1ccccc1)c1[nH]n(-c2ccccc2)c2c(O)n(-c3ccccc3)c(=O)c1-2 [3-benzoyl-1,5-diphenyl-3a,6a-dihydropyrrolo[3,4-c]pyrazole-4,6-dione]",1.36

row,Compound,EC50 [µM]
1,"COc1ccc(N2C(=O)C(=Nc3c(C)n(C)n(-c4ccccc4)c3=O)C(Cl)C2=O)cc1 (stereo not drawn) [3-chloranyl-4-[(1,5-dimethyl-3-oxidanylidene-2-phenyl-pyrazol-4-yl)amino]-1-(4-methoxyphenyl)pyrrole-2,5-dione]",12
2,"Cc1c(N=C2C(=O)N(c3ccccc3)C(=O)C2Cl)c(=O)n(-c2ccccc2)n1C (stereo not drawn) [3-chloranyl-4-[(1,5-dimethyl-3-oxidanylidene-2-phenyl-pyrazol-4-yl)amino]-1-phenyl-pyrrole-2,5-dione]",15.4
3,Cc1cc(N)ccc1N1CCCC1 [3-methyl-4-(1-pyrrolidinyl)aniline;hydrochloride],7.93
4,"CNC(CC(=O)c1ccc([N+](=O)[O-])cc1)C(Cl)(Cl)Cl (stereo not drawn) [4,4,4-Trichloro-3-methylamino-1-(4-nitro-phenyl)-butan-1-one]",0.47
5,"COc1cc(C2Nc3cccc4cccc(c34)N2)cc(OC)c1O [4-(2,3-dihydro-1H-perimidin-2-yl)-2,6-dimethoxyphenol]",1.73
6,C=CS(=O)(=O)c1sc(Cl)c(N2CCOCC2)c1[N+](=O)[O-] [4-(2-chloranyl-5-ethenylsulfonyl-4-nitro-thiophen-3-yl)morpholine],5.46
7,"Cc1ccc(-c2c3c([nH]c(=S)c2C#N)CCCC3)o1 [4-(5-methylfuran-2-yl)-2-sulfanylidene-5,6,7,8-tetrahydro-1H-quinoline-3-carbonitrile]",8.21
8,"CCN(CC)c1ccc(Nc2nc(N3CCOCC3)c3ccccc3n2)cc1 [4-N,4-N-diethyl-1-N-(4-morpholin-4-ylquinazolin-2-yl)benzene-1,4-diamine]",9
9,CCOc1cccc(CNc2ccc(O)cc2)c1OCc1ccc(Cl)cc1 [4-[[2-[(4-chlorophenyl)methoxy]-3-ethoxyphenyl]methylamino]phenol],2.8
10,"CNc1ccc(Br)cc(C(=O)/C=C/c2cccc(OC)c2OC)c1=O [4-bromanyl-2-[(E)-3-(2,3-dimethoxyphenyl)prop-2-enoyl]-7-(methylamino)cyclohepta-2,4,6-trien-1-one]",8.38
11,"CN(C)c1ccc(C=C2C(=O)NC(=O)NC2=O)cc1[N+](=O)[O-] [5-[[4-(dimethylamino)-3-nitrophenyl]methylidene]-1,3-diazinane-2,4,6-trione]",4.67
12,"Cc1ccc(-c2nc3c(c(=O)[nH]c(=O)n3Cc3ccccc3)n2C)o1 [7-methyl-8-(5-methyl-2-furanyl)-3-(phenylmethyl)purine-2,6-dione]",1.94
13,"COc1cc(/C=C2\CC/C(=C\c3cc(OC)c(O)c(OC)c3)C2=O)cc(OC)c1O [(2E,5E)-2,5-bis[(4-hydroxy-3,5-dimethoxyphenyl)methylidene]cyclopentan-1-one]",3.9
14,"O=C1/C(=C\c2ccc(-c3ccccc3Cl)o2)SC(=S)N1CC1CCCO1 (stereo not drawn) [(5E)-5-[[5-(2-chlorophenyl)furan-2-yl]methylidene]-3-(oxolan-2-ylmethyl)-2-sulfanylidene-1,3-thiazolidin-4-one]",2.6
15,"Fc1ccc(C=C2CCCC3C2=NC(=S)NC3c2ccc(F)cc2)cc1 (stereo not drawn) [(8E)-4-(4-fluorophenyl)-8-[(4-fluorophenyl)methylidene]-1,3,4,5,6,7-hexahydroquinazoline-2-thione]",6.65
16,CN1CCc2cccc3c2[C@H]1Cc1ccc(O)c(O)c1-3 [APOMORPHINE HYDROCHLORIDE],46.4
